Legend:
colds = details: free zinc ions; Mossad et al. 1996, Godfrey et al. 1996; cited from earlier work
rhinoviruses = details: Merluzzi et al. 1989; cited from earlier work
[1] = Nephelometric determination of free Zn ions in the presence of polyols; assay type: physicochemical; details: 35° C., acetate buffer pH=6.0; for Percentage of free (uncomplexed) ions: of total amount, 26 mg Zn in 50 ml; for Zn ions free in solution: standardized to the same Zn ion concentration (26 mg in 50 ml)
Description: 10 ml of zinc gluconate solution (2 g of zinc gluconate and 250 ml of deionized water) are mixed with 10 ml of polyol solution (1.0 g of sugar or sugar alcohol dissolved in 25 ml of deionized water) and 2 ml of acetate buffer (pH=6.0) and thermostatted at 35° C. in a cuvette.
1 molar NaHCO3 solution is subsequently added dropwise in small amounts, and the turbidity is determined using a turbidity photometer.
Isomalt, sucrose, glucose, hard isomalt candies, the zinc gluconate which was used as a source of zinc and two commercial products are compared, the overall amount of Zn ions in each case corresponding to 26 mg in 50 ml of solution.

[2] = Godfrey et al. 1992; Zarembo et al. 1992; U.S. Pat. Nos. 5,409,905 and 5,002,970; cited from earlier work
Staphylococcus aureus = experiment: Growth of Staphylococcus aureus in CASO medium with added sugar alcohol, optical density OD578 versus control; assay type: cell-based; details: 16 h, read-out: growth reduced to
Description: Staphylococcus aureus was cultivated at 37° C. in CASO medium to which, in addition to the carbon source glucose (5% strength), isomalt (0.58 M) had been added. The growth of the bacteria cultures in a shaking flask was determined after 16 h by means of the optical density (OD578) and compared with a control (CASO medium without isomalt). It was observed that in all experiments the growth of the cultures which were grown in isomalt was inhibited by more than 50%.

[3] = Dissolution rate of sugar alcohols; assay type: physicochemical

Compound	Percentage of free (uncomplexed) ions [1] [%]	Zn ions free in solution [1]	also measured
zinc ions			duration and severity of the symptoms of colds (colds): markedly reduces both the duration and the severity of the symptoms of colds; antiviral effects (rhinoviruses): antiviral effects are a direct function of the amount of free Zn^2+ ions
OC[C@H]1O[C@@](CO)(O[C@H]2O[C@H](CO)[C@@H](O)[C@H](O)[C@H]2O)[C@@H](O)[C@@H]1O [Sucrose]	48	12.40 mg in 50 ml of solution	
OC[C@@H](O)[C@@H](O)[C@H](O)[C@@H](O)CO [sorbitol]			zinc-complexing action [2]: zinc-complexing action; activity at 580000 µM (Staphylococcus aureus): ~75%
OC[C@@H](O)[C@@H](O)[C@H](O)[C@H](O)CO [mannitol]			zinc-complexing action [2]: zinc-complexing action
O=C[C@H](O)[C@@H](O)[C@H](O)[C@H](O)CO [Glucose]	50	13.00 mg in 50 ml of solution	
OC[C@@H](O)[C@@H](O)[C@H](O)[C@H](O)CO[C@H]1O[C@H](CO)[C@@H](O)[C@H](O)[C@H]1O [1,1-GPM, 1-O-α-D-glucopyranosyl-D-mannitol]			dissolution rate compared with 1,6-GPS [3]: considerably lower dissolution rate than 1,6-GPS
zinc gluconate [Zn gluconate]	64	14.62 mg in 50 ml of solution	

From patent publication US6139864A, “Compositions for common colds” (Sudzucker Aktiengesellschaft, priority 1998, dated 2000)
